“Also recorded” adds a separate entry of the source. Like-named read-outs stand apart in the source and are kept apart here.
Key:
human DNA polymerase β = target: T1, human DNA polymerase β (Homo sapiens, UniProt P06746); test: Primer extension assay using human DNA polymerase β; type: biochemical; details: 60 min, 2 U, 37 °C
T1 construct: purchased Chimerx
Description: Encouraged by the previously obtained results that γ-phosphate-modified-d4TDPs 3, γ-monoalkylated d4TTP derivatives as well as d4TDP were accepted as substrates by HIV-RT,[49],[50],[55],[59]−[61] δ-dialkylated d4T tetraphosphate analogues 4,5, δ-monoalkylated d4T tetraphosphate analogues 20 and 24 and d4T4P were investigated in primer extension assays in the presence of HIV-RT or the three different human DNA polymerases α, β and γ. D4TTP (for the compounds 4–9) and the natural thymidine triphosphate (TTP) were used as reference compounds.
(§1) Figure 6 Primer extension assay using HIV-RT (A), human polymerases α (B), β (C), and γ (D). (Figure 6A). Primer extension assay using HIV-RT (30 min, 6U). Lane 1: (+) dATP, dCTP, dGTP, and TTP with HIV-RT. Lane 2: (−) dATP, dCTP, dGTP, and TTP without HIV-RT. Lane 3: TTP. […] Lane 5: δ-(C4; C18)-d4T4P 4d. […] Lane 7: δ-(C18)-d4T4P 20. Lane 8: δ-C-(C18)-d4T4P 24. Lane 9: d4T4P. Lane 10: d4TTP. Lane 11: d4TDP. HIV-RT assay reaction conditions: 50 mM Tris–HCl (pH 8.6), 10 mM MgCl2, 40 mM KCl, 250 μM dNTPs, HIV-RT (6 U), 0.20 μM DNA hybrid, primer-template-hybrid 0.32 mM in a reaction volume of 10 μL, incubated at 37 °C for 0.5 h, 80 °C for 7 min. Primer extension assays: 50 mA, 45 w for 4 h. (Figure 6B). For human DNA polymerase α assay (60 min, 2 U): Lane 1: (+) dATP, dCTP, dGTP, and TTP with human polymerase α. Lane 2: (−) dATP, dCTP, dGTP, and TTP without human polymerase α. Lane 3: TTP. […] Lane 5: δ-(C4; C18)-d4T4P 4d. […] Lane 7: δ-(C18)-d4T4P 20. Lane 8: δ-C-(C18)-d4T4P 24. Lane 9: d4T4P. Lane 10: d4TTP. Human DNA polymerase α assay conditions: 60 mM Tris–HCl (pH 8), 5 mM Mg(OAc)2, 100 mM KCl, 1.0 mM dithiothreitol, 0.1 mM spermine, 0.01% (w/v) bovine serum albumin, 250 μM dNTPs, 2 U human polymerase α, 0.20 μM DNA hybrid, and primer-template-hybrid 0.32 mM in a reaction volume of 10 μL, incubated at 37 °C for 1 h, 80 °C for 7 min. Primer extension assays: 50 mA, 45 w for 3 h. (Figure 6C). For human DNA polymerase β assay (60 min, 2 U): Lane 1: (+) dATP, dCTP, dGTP, and TTP with human polymerase β. Lane 2: (−) dATP, dCTP, dGTP, and TTP without human polymerase β. Lane 3: TTP. […] Lane 5: δ-(C4; C18)-d4T4P 4d. […] Lane 7: δ-(C18)-d4T4P 20. Lane 8: δ-C-(C18)-d4T4P 24. Lane 9: d4T4P. Lane 10: d4TTP. Human DNA polymerase β assay conditions: 50 mM Tris–HCl (pH 8.7), 10 mM Mg(OAc)2, 100 mM KCl, 1.0 mM dithiothreitol, 0.1 mM spermine, 0.01% (w/v) bovine serum albumin, 15% glycerol, 250 μM dNTPs, 2 U human DNA polymerase β, 0.20 μM DNA hybrid, and primer-template-hybrid 0.32 mM in a reaction volume of 10 μL, incubated at 37 °C for 1 h, 80 °C for 7 min. Primer extension assays: 50 mA, 45 w for 3 h. (Figure 6D), For the human DNA polymerase γ assay (120 min, 2 U): Lane 1: (+) dATP, dCTP, dGTP, and TTP with human polymerase γ. Lane 2: (−) dATP, dCTP, dGTP, and TTP without human polymerase γ. Lane 3: TTP. […] Lane 5: δ-(C4; C18)-d4T4P 4d. […] Lane 7: δ-(C18)-d4T4P 20. Lane 8: δ-C-(C18)-d4T4P 24. Lane 9: d4T4P. Lane 10: d4TTP. Human polymerase γ assay conditions: 60 mM Tris–HCl (pH 8), 5 mM Mg(OAc)2, 1.0 mM dithiothreitol, 0.1 mM spermine, 0.01% (w/v) bovine serum albumin, 250 μM dNTPs, 2 U human polymerase γ, 0.5 μM MnCl2, 0.20 μM DNA hybrid, primer-template-hybrid 0.32 mM in a reaction volume of 10 μL, incubated at 37 °C for 2 h, 80 °C for 7 min. Primer extension assays: 50 mA, 45 w for 3 h.
HIV-RT and human polymerases α, β, and γ were bought from Roboklon and Chimerx. The fluorescent-labeled primer and template were obtained from Metabion. […]

HIV-1 (HE) = test: Anti-HIV replication assay, HIV-1 (HE) in wild-type CEM/0 cells; type: cell-based; details: Human immunodeficiency virus 1, CCRF-CEM, read-out: HIV-1 (HE) EC50
Summary of the method: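 Wild-type CEM/0 CD4+ T-cells (~3 × 10^5 cells/mL) infected with 100 CCID50/mL HIV-1(HE) alongside compound dilutions, incubated 4–5 days at 37 °C. Syncytia (giant cell) formation scored microscopically; EC50 is the concentration inhibiting HIV-induced giant cell formation by 50%.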

HIV-RT = target: T2, HIV-RT (Human immunodeficiency virus type 1 group M subtype B, UniProt P03366); test: Primer extension assay using HIV-RT; type: biochemical; details: 30 min, 6 U HIV-RT, 37 °C
T2 construct: HIV-RT HIV reverse transcriptase; purchased Roboklon
Description: as §1
HIV-RT and human polymerases α, β, and γ were bought from Roboklon and Chimerx. The fluorescent-labeled primer and template were obtained from Metabion.
For the annealing of the primer/template mixture, 40 μL of the 10 μM primer and 60 μL of the 10 μM template were incubated for 5 min at 95 °C. Then, for optimal annealing, the temperature was reduced over a period of 2 h to 20 °C and incubated again for 20 min at 20 °C.
For the primer extension, the reaction mixture was incubated for 30 min for the HIV-RT, 60 min for the human DNA polymerase α, and 120 min for the human DNA polymerases β and γ at 37 °C, followed by 7 min at 80 °C.

[1] = wild-type CEM/0 cells, mean ± SD, n = 2–3

SMILES | substrate for human DNA polymerase β (primer extension) (human DNA polymerase β) | EC50 (HIV-1 (HE)) | substrate for HIV-RT (primer extension) (HIV-RT) | EC50 (HIV-1 (HE); [1])
CCCCCCCCCCCCCCCCCCP(=O)(OCCCC)OP(=O)(O)OP(=O)(O)OP(=O)(O)OC[C@@H]1C=C[C@H](n2cc(C)c(=O)[nH]c2=O)O1 (stereo partly shown) [5a, δ-(Alkyl-C4)-δ-C-(alkyl-C18)-d4T4P] | No incorporation of d4TMP | 330 ± 90 nM | good substrates | 
CCCCCCCCCCCCCCCCCCOP(=O)(OCCCC)OP(=O)(O)OP(=O)(O)OP(=O)(O)OC[C@@H]1C=C[C@H](n2cc(C)c(=O)[nH]c2=O)O1 (stereo partly shown) [4d, δ-(Alkyl-C4; alkyl-C18)-d4T4P] | not accepted |  | good substrates | 110 ± 10 nM
CCCCCCCCCCCCCCCCCCOP(=O)(O)OP(=O)(O)OP(=O)(O)OP(=O)(O)OC[C@@H]1C=C[C@H](n2cc(C)c(=O)[nH]c2=O)O1 [compound 20, δ-(Alkyl-C18)-d4T4P] |  |  | substrates | 710 ± 260 nM
CCCCCCCCCCCCCCCCCCP(=O)(O)OP(=O)(O)OP(=O)(O)OP(=O)(O)OC[C@@H]1C=C[C@H](n2cc(C)c(=O)[nH]c2=O)O1 [compound 24, δ-C-(Alkyl-C18)-d4T4P] |  |  | substrates | 430 ± 370 nM
Cc1cn([C@H]2C=C[C@@H](COP(=O)(O)OP(=O)(O)OP(=O)(O)OP(=O)(O)O)O2)c(=O)[nH]c1=O [d4T4P, 2′,3′-didehydro-2′,3′-dideoxythymidine-5′-tetraphosphate] | efficiently incorporated; also recorded: substrate |  | substrate | 420 ± 160 nM

— article PMC10895676, “Antiviral Activity of Lipophilic Nucleoside Tetraphosphate Compounds” (Journal of Medicinal Chemistry, 2024)
